Test results as given in patent US10307426B2, “Therapeutic compounds and compositions, and methods of use thereof” (Genentech, Inc., priority 2018, dated 2019).
Like-named read-outs stand apart in the source and are kept apart here.

How the values were obtained:
[1] = test system: JAK1-dependent STAT6 phosphorylation downstream of IL-13 stimulation in BEAS-2B human bronchial epithelial cells; test: JAK1 pathway assay in cell lines: IL-13 stimulated STAT6 phosphorylation in BEAS-2B cells (MSD); type: cell-based; details: 1 hr compound incubation, IL-13 stimulation 15 min, read-out: IL-13 p-STAT6 BEAS-2B IC50
Procedure: Inhibitor potency (EC50) was determined in cell-based assays designed to measure JAK1 dependent STAT phosphorylation. As noted above, inhibition of IL-4, IL-13, and IL-9 signaling by blocking the Jak/Stat signaling pathway can alleviate asthmatic symptoms in pre-clinical lung inflammation models (Mathew et al., 2001, J Exp Med 193(9): 1087-1096; Kudlacz et. al., 2008, Eur J. Pharmacol 582(1-3): 154-161).
In one assay approach, TF-1 human erythroleukemia cells obtained from the American Type Culture Collection (ATCC; Manassas, Va.) were used to measure JAK1-dependent STAT6 phosphorylation downstream of IL-13 stimulation. Prior to use in the assays, TF-1 cells were starved of GM-CSF overnight in OptiMEM medium (Life Technologies, Grand Island, N.Y.) supplemented with 0.5% charcoal/dextran stripped fetal bovine serum (FBS), 0.1 mM non-essential amino acids (NEAA), and 1 mM sodium pyruvate. The assays were run in 384-well plates in serum-free OptiMEM medium using 300,000 cells per well. In a second assay approach, BEAS-2B human bronchial epithelial cells obtained from ATCC were plated at 100,000 cells per well of a 96-well plate one day prior to the experiment. The BEAS-2B assay was run in complete growth medium (bronchial epithelial basal medium plus bulletkit; Lonza; Basel, Switzerland).
Test compounds were serially diluted 1:2 in DMSO and then diluted 1:50 in medium just before use. Diluted compounds were added to the cells, for a final DMSO concentration of 0.2%, and incubated for 30 min (for the TF-1 assay) or 1 hr (for the BEAS-2B assay) at 37° C. Then, cells were stimulated with human recombinant cytokine at their respective EC90 concentrations, as previously determined for each individual lot. Cells were stimulated with IL-13 (R&D Systems, Minneapolis, Minn.) for 15 min at 37° C. The TF-1 cell reactions were stopped by the direct addition of 10× lysis buffer (Cell Signaling Technologies, Danvers, Mass.), whereas the BEAS-2B cell incubations were halted by the removal of medium and addition of 1× lysis buffer. The resultant samples were frozen in the plates at −80° C. Compound mediated inhibition of STAT6 phosphorylation was measured in the cell lysates using MesoScale Discovery (MSD) technology (Gaithersburg, Md.). EC50 values were determined as the concentration of compound required for 50% inhibition of STAT phosphorylation relative to that measured for the DMSO control.

[2] = biological target: isolated recombinant JAK2 kinase domain (Homo sapiens (Human), UniProt O60674); test: JAK2 enzyme assay (Caliper LabChip, peptide phosphorylation, Ki); type: biochemical; details: 0.2 nM JAK2, ATP 25 μM, Morrison tight binding model
Sequence of isolated recombinant JAK2 kinase domain (O60674 849-1124): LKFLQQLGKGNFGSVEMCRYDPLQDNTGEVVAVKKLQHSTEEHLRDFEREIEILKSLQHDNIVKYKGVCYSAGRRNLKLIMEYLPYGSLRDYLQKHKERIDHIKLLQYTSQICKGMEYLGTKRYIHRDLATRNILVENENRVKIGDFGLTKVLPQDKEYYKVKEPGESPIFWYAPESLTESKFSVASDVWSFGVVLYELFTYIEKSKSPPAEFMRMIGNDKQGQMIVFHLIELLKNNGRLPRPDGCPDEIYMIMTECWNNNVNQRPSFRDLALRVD
Procedure: (§1) The activity of the isolated recombinant JAK1 and JAK2 kinase domain was measured by monitoring phosphorylation of a peptide derived from JAK3 (Val-Ala-Leu-Val-Asp-Gly-Tyr-Phe-Arg-Leu-Thr-Thr, fluorescently labeled on the N-terminus with 5-carboxyfluorescein) using the Caliper LabChip® technology (Caliper Life Sciences, Hopkinton, Mass.). […] Reactions were incubated at 22° C. in 384-well polypropylene microtiter plates for 30 minutes and then stopped by addition of 25 μL of an EDTA containing solution (100 mM HEPES buffer (pH 7.2), 0.015% Brij-35, 150 mM EDTA), resulting in a final EDTA concentration of 50 mM. After termination of the kinase reaction, the proportion of phosphorylated product was determined as a fraction of total peptide substrate using the Caliper LabChip® 3000 according to the manufacturer's specifications. Ki values were then determined using the Morrison tight binding model (Morrison, J. F., Biochim. Biophys. Acta. 185:269-296 (1969); William, J. W. and Morrison, J. F., Meth. Enzymol., 63:437-467 (1979)) modified for ATP-competitive inhibition [Ki=Ki,app/(1+[ATP]/Km,app)].

[3] = biological target: isolated recombinant JAK1 kinase domain (Homo sapiens (Human), UniProt P23458); test: JAK1 enzyme assay (Caliper LabChip, peptide phosphorylation, Ki); type: biochemical; details: 1.5 nM JAK1, ATP 25 μM, Morrison tight binding model
Sequence of isolated recombinant JAK1 kinase domain (P23458 875-1153): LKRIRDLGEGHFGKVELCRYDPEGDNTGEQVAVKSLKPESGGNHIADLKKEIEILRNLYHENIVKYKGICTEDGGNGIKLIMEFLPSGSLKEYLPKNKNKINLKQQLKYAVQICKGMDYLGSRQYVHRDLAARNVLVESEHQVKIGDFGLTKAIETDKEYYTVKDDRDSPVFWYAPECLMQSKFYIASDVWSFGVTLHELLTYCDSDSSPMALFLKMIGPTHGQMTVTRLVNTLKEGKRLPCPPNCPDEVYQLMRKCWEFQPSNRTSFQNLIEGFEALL
Procedure: as §1

Row | Structure (SMILES) | IC50 ([1]; Homo sapiens, BEAS-2B) | Ki [2] | Ki [3] | IC50 [1]
1 | CN(C)C(=O)Cn1cc(NC(=O)c2cnn3cccnc23)c(-c2cc(C3CC3)ccc2OC(F)F)n1 [Example 14, N-(3-(5-cyclopropyl-2-(difluoromethoxy)phenyl)-1-(2-(dimethylamino)-2-oxoethyl)-1H-pyrazol-4-yl)pyrazolo[1,5-a]pyrimidine-3-carboxamide] | 47.3 nM | 1.99 nM | 0.8 nM | 
2 | CN(C)C(=O)Cn1cc(NC(=O)c2c(N)nn3cccnc23)c(-c2cc(Cl)ccc2OC(F)F)n1 [Example 3, 2-amino-N-(3-(5-chloro-2-(difluoromethoxy)phenyl)-1-(2-(dimethylamino)-2-oxoethyl)-1H-pyrazol-4-yl)pyrazolo[1,5-a]pyrimidine-3-carboxamide] | 10.3 nM | 0.77 nM | 0.34 nM | 
3 | CN(C)C(=O)Cn1cc(NC(=O)c2cnn3cccnc23)c(-c2cc(C(F)CF)ccc2OC(F)F)n1 (single isomer, unassigned) [Example 4] |  | 3.26 nM | 5.84 nM | 83.8 nM
4 | CN1CC(O)(c2cccc(Oc3ccc(OC(F)F)c(-c4nn(CC(=O)N(C)C)cc4NC(=O)c4cnn5cccnc45)c3)c2)C1 [Example 18, N-(3-(2-(difluoromethoxy)-5-(3-(3-hydroxy-1-methylazetidin-3-yl)phenoxy)phenyl)-1-(2-(dimethylamino)-2-oxoethyl)-1H-pyrazol-4-yl)pyrazolo[1,5-a]pyrimidine-3-carboxamide] | 285 nM | 1.56 nM | 3.18 nM | 
5 | CN(C)C(=O)Cn1cc(NC(=O)c2cnn3cccnc23)c(-c2cc([C@@H]3C[C@H]3C#N)ccc2OC(F)F)n1 [Example 1, N-(3-(5-((1R,2R)-2-cyanocyclopropyl)-2-(difluoromethoxy)phenyl)-1-(2-(dimethylamino)-2-oxoethyl)-1H-pyrazol-4-yl)pyrazolo[1,5-a]pyrimidine-3-carboxamide] | 9.9 nM | 0.61 nM | 0.25 nM | 
6 | CC(C(=O)N(C)C)n1cc(NC(=O)c2cnn3cccnc23)c(-c2cc(Cl)ccc2OC(F)F)n1 (single isomer, unassigned) [Example 11] |  | 1.26 nM | 0.58 nM | 41.8 nM
7 | CN(C)C(=O)Cn1cc(NC(=O)c2cnn3cccnc23)c(-c2cc(C(F)CF)ccc2OC(F)F)n1 (single isomer, unassigned) [Example 5] |  | 0.38 nM | 0.17 nM | 6.7 nM
8 | CN(C)C(=O)Cn1cc(NC(=O)c2cnn3cccnc23)c(-c2cc(Cl)ccc2OC(F)F)n1 [Example 16, N-(3-(5-chloro-2-(difluoromethoxy)phenyl)-1-(2-(dimethylamino)-2-oxoethyl)-1H-pyrazol-4-yl)pyrazolo[1,5-a]pyrimidine-3-carboxamide] | 33.4 nM | 1.02 nM | 0.65 nM | 
9 | CN(C)C(=O)Cn1cc(NC(=O)c2cnn3cccnc23)c(-c2cc(I)ccc2OC(F)F)n1 [Example 2, N-[3-[2-(difluoromethoxy)-5-iodophenyl]-1-[(dimethylcarbamoyl)methyl]-1H-pyrazol-4-yl]pyrazolo[1,5-a]pyrimidine-3-carboxamide] | 6 nM | 0.17 nM | 0.25 nM | 
10 | CN(C)C(=O)Cn1cc(NC(=O)c2cnn3cccnc23)c(-c2cc(CCF)ccc2OC(F)F)n1 [Example 9, N-(3-(2-(difluoromethoxy)-5-(2-fluoroethyl)phenyl)-1-(2-(dimethylamino)-2-oxoethyl)-1H-pyrazol-4-yl)pyrazolo[1,5-a]pyrimidine-3-carboxamide] | 269 nM | 1.92 nM | 0.97 nM | 
11 | CN(C)C(=O)Cn1cc(NC(=O)c2cnn3cccnc23)c(-c2cc(C(F)F)ccc2OC(F)F)n1 [Example 6, N-(3-(2-(difluoromethoxy)-5-(difluoromethyl)phenyl)-1-(2(dimethylamino)-2-oxoethyl)-1H-pyrazol-4-yl)pyrazolo[1,5-a]pyrimidine-3-carboxamide] | 9.9 nM | 0.25 nM | 0.15 nM | 
12 | CN(C)C(=O)Cn1cc(NC(=O)c2cnn3cccnc23)c(-c2cc(CC(F)F)ccc2OC(F)F)n1 [Example 7, N-(3-(5-(2,2-difluoroethyl)-2-(difluoromethoxy)phenyl)-1-(2-(dimethylamino)-2-oxoethyl)-1H-pyrazol-4-yl)pyrazolo[1,5-a]pyrimidine-3-carboxamide] | 28.9 nM | 1.15 nM | 0.52 nM | 
13 | CN(C)C(=O)Cn1cc(NC(=O)c2cnn3cccnc23)c(-c2cc(Br)ccc2OC(F)F)n1 [Example 15, N-(3-(5-bromo-2-(difluoromethoxy)phenyl)-1-(2-(dimethylamino)-2-oxoethyl)-1H-pyrazol-4-yl)pyrazolo[1,5-a]pyrimidine-3-carboxamide] | 14.3 nM | 0.43 nM | 0.32 nM | 
14 | CC(C(=O)N(C)C)n1cc(NC(=O)c2cnn3cccnc23)c(-c2cc(Cl)ccc2OC(F)F)n1 (single isomer, unassigned) [Example 10] |  | 0.83 nM | 0.41 nM | 16.6 nM
15 | C=Cc1ccc(OC(F)F)c(-c2nn(CC(=O)N(C)C)cc2NC(=O)c2cnn3cccnc23)c1 [Example 13, N-(3-(2-(difluoromethoxy)-5-vinylphenyl)-1-(2-(dimethylamino)-2-oxoethyl)-1H-pyrazol-4-yl)pyrazolo[1,5-a]pyrimidine-3-carboxamide] | 24.1 nM | 1.17 nM | 0.51 nM | 
16 | CN(C)C(=O)Cn1cc(NC(=O)c2cnn3cccnc23)c(-c2cc(Oc3ccc4c(c3)CNCC4)ccc2OC(F)F)n1 [Example 12, N-(3-(2-(difluoromethoxy)-5-((1,2,3,4-tetrahydroisoquinolin-7-yl)oxy)phenyl)-1-(2-(dimethylamino)-2-oxoethyl)-1H-pyrazol-4-yl)pyrazolo[1,5-a]pyrimidine-3-carboxamide] | 29.8 nM | 0.75 nM | 0.27 nM | 
17 | CN(C)C(=O)Cn1cc(NC(=O)c2cnn3cccnc23)c(-c2cc(Oc3ccc(C(=O)N(C)C)cc3)ccc2OC(F)F)n1 [Example 8, N-(3-(2-(difluoromethoxy)-5-(4-(dimethylcarbamoyl)phenoxy)phenyl)-1-(2-(dimethylamino)-2-oxoethyl)-1H-pyrazol-4-yl)pyrazolo[1,5-a]pyrimidine-3-carboxamide] | 43.9 nM | 1.81 nM | 0.83 nM | 
18 | CN(C)C(=O)Cn1cc(NC(=O)c2cnn3cccnc23)c(-c2cc(OC(F)F)ccc2OC(F)F)n1 [Example 17, N-(3-(2,5-bis(difluoromethoxy)phenyl)-1-(2-(dimethylamino)-2-oxoethyl)-1H-pyrazol-4-yl)pyrazolo[1,5-a]pyrimidine-3-carboxamide] | 14.1 nM | 0.72 nM | 0.26 nM | 
